Literature values as cited in patent publication US20150320677A1, “EFFERVESCENT TABLET FORMULATIONS OF DAPOXETINE AND A PDE5 INHIBITOR” (Sanovel Ilac Sanayi Ve Ticaret Anonim Sirketi, priority 2012, published 2015).

Columns and labels:
[1] = in vivo, po
[2] = following oral administration

Compound | binding to plasma proteins [1] | onset of action takes (second sentence of b41) [2]
Dapoxetine | almost completely binding to plasma proteins | –
CN1CC(=O)N2[C@H](c3ccc4c(c3)OCO4)c3[nH]c4ccccc4c3C[C@@H]2C1=O [tadalafil, (6R-trans)-6-(1,3-benzodioxol-5-yl)-2,3,6,7,12,12a-hexahydro-2-methyl-pyrazino[1′,2′:1,6]pyrido[3,4-b]indole-1,4-dione] | – | up to 36 hours
